The results in this text go back to patent US7098215B2, “Nitrogenous compounds and antiviral drugs containing the same” (Kureha Chemical Industry Co., Ltd., priority 2000, dated 2006).

Bounds are passed on as bounds.

Data set [1] has as its system HIV-1IIIB infected MT-4 cells. As to the kind of experiment: Anti-HIV activity: protection of HIV-1IIIB infected MT-4 cells, MTT method. In kind it is cell-based. The following applies: MOI 0.01, culture for 5 days, concentration inhibiting 50% of cytotoxicity due to HIV infection. Here is the method:
HIV-1IIIB infected MT-4 cells were added to 96-well microtiter plates (3.0×10^4/well, MOI (Multiplicity of infection): 0.01), together with test compounds at different concentrations immediately after the infection. After culture for 5 days in a carbon dioxide incubator at 37° C., the number of surviving cells was counted by MTT (tetrazolium) method (Pawels et al., J. Virol. Methods, 20, 309-321, 1988).
For orientation: Formazan colour is commonly taken as a measure of viable cells.

The next data set concerns HIV-1 (NL4-3). Briefly: Antiviral effect in SCID mice transplanted with human PBMCs and infected with HIV-1 (NL4-3), HIV-1 p24 by ELISA. In kind it is in vivo. The settings on record: SCID mice with human PBMCs, virus NL4-3, 0.1 ml/2 mM solution/mouse intraperitoneally, 12 days after infection. Here is the method: The effect of the antiviral drug on SCID mice (immunodeficiency mice) was examined.
TMβ-1 (rat anti-mouse IL-2Rβ monoclonal antibody) was intraperitoneally administered to C.B-17 SCID mice (8 weeks-old, female, provided by CLEA Japan, Inc.) in the amount of 1 mg/mouse to exterminate NK cells. After 2 days, 1.5×10^6 human PBMCs were transplanted in the spleen together with human rIL-4 (0.2 μg/mouse). On the same day, the compound No. 86 (0.1 ml/2 mM solution/mouse) or a medium (0.1 ml) (control) was intraperitoneally administered. After 1 day, HIV-1 (NL4-3) (0.2 ml/1×10^4 TCID50/ml) was intraperitoneally administered to cause virus infection. The same amount of the compound No. 86 (or the medium) was intraperitoneally administered on each of 4 consecutive days thereafter. rIL-4 (0.2 μg) was also intraperitoneally administered 4 days after infection. 12 days after infection, blood plasma and abdominal cavity washing solutions were collected to measure the amount of HIV-1 P^24 using an ELISA kit.
(In general: In an ELISA, binding on a coated surface is turned into a signal by an enzyme label.)

For another data set, the system named is ICR male mice. Briefly: Acute toxicity in ICR mice, intraperitoneal administration. The settings on record: 3 per group, 50 mg/kg intraperitoneally, twice a day, for four days, number of dead animals after 5 days. In kind it is in vivo. The method, then:
Acute toxicity of the antiviral drug was examined. Three groups of 7 week-old, ICR male mice, each group consisting of 3 mice, were bred for one week. The compounds prepared in the Examples, dissolved in a physiological saline solution or distilled water, were intraperitoneally administered at a dose of 50 mg/kg, twice a day, for four days. After 5 days, the number of dead animals was examined.

On to `C[C@H](NC(=O)[C@H](CCCN=C(N)N)NC(=O)c1ccc(CNCc2ccccn2)cc1)c1cccc2ccccc12` [Compound No. 86, N^α-(4-(N-2-picolylaminomethyl)benzoyl)-L-arginine (1′S)-1′-(1-naphthyl)ethylamide], for which the response in data set [1] was half-maximal at 0.043 µM (EC50). For the same molecule, in the data set on HIV-1 (NL4-3), the “p24 level Abdominal cavity washing solution” value is below 5 pg/mL and the “p24 level Plasma” value was below 5 pg/mL. Also, in the data set with ICR male mice, the Dead mouse is listed as 0/3.
